The source of these data is patent EP2067771A1, “Derivatives of Dihydroxypyrrolidine as Anti-Cancer Compounds” (EPFL Ecole Polytechnique Fédérale de Lausanne, priority 2007, dated 2009).

Where two headings read alike, the source gives them in different places.

The subject of one series is U87. Kind of series: Viability assay (CellTiter 96 Aqueous1), cell growth inhibition. Particulars: Homo sapiens, U-87 MG. Type of series: cell-based. How it is done: (§1) Cell lines and reagents. The tumor cell lines used for the in vitro evaluation of cell growth inhibition by dihydroxypirolidine derivatives were U87 (glioblastoma), PC3 (prostate cancer), A549 (lung carcinoma), MDA-MB231, MCF7, BT474, and SKBR3 (breast cancer). Cells were grown in 10-cm culture dishes with McCoy medium containing 10% fetal calf serum (FCS) and antibiotics at 37°C and 5% CO2. The dihydroxypirolidine derivatives CB161, CB181, and CB183 were weighted and dissolved in DMSO to prepare a stock solution concentrated 100 mM.
(§2) Viability assays. For the viability assays, 5 x 10^4 cells/well were plated in 200 µl medium in 96 well plates. 48 hours later, the dihydroxypirolidine derivatives were added to the wells at concentrations ranging between 10^-2 and 400 µM, such that the vehicle DMSO never exceeded 0.4%. Each drug concentration was tested in duplicate. Viability was determined 72 hours later using CellTiter 96 Aqueous1 (Promega) according to the manufacturer's instructions. Incubation times with CellTiter96 Aqueous1 ranged between 2 and 4 hours. Plates were read with a spectrophotometer (Labsystems iEMS Reader MF) at 490 nm wave length. IC50s were estimated using GraphPad Prism4.

The test system of series [1] is seven established human tumor cell lines. Kind of series: Viability assay, panel of seven tumor cell lines. The settings on record: all the cell lines tested. In kind it is cell-based. How it is done:
as §1, §2

Another series relates to BT474. Kind of series: Viability assay (CellTiter 96 Aqueous1), cell growth inhibition. In kind it is cell-based. Particulars: Homo sapiens, BT-474; BT474 (breast cancer), viability 72 hours after addition. How it is done: as §1, §2
The subject of the next series is PC3. Described as above. Particulars: Homo sapiens, PC-3; PC3 (prostate cancer), viability 72 hours after addition. Type of series: cell-based. How it is done:
as §1, §2

For a further series, the system named is MCF7. The series is described as above. In kind it is cell-based. The settings on record: Homo sapiens; MCF7 (breast cancer), viability 72 hours after addition. On the procedure:
as §1, §2

The test system of a further series is SKBR3. Described as above. Type of series: cell-based. The settings on record: Homo sapiens, SK-BR-3; SKBR3 (breast cancer), viability 72 hours after addition. On the procedure: as §1, §2
Another series relates to MDA-MB-231. The series is described as above. Type of series: cell-based. Particulars: Homo sapiens; MDA-MB-231 (breast cancer), viability 72 hours after addition. How it is done: as §1, §2
The test system of the next series is A549. Described as above. In kind it is cell-based. The settings on record: Homo sapiens; A549 (lung carcinoma), viability 72 hours after addition. How it is done: as §1, §2
A further series deals with human glioblastoma cells. Particulars: S. Favre et al., Heterocycles 2006; cited from earlier work.
Another series has as its system glioblastoma cell growth. Particulars: H. Fiaux et al., J. Med. Chem. 2005; cited from earlier work.
The mark [2] stands for this setting: refers to Figure 8 (U87 glioblastoma), read-out: IC50s (growth inhibition effects).

For the compound `OC[C@H](NC[C@H]1NC[C@H](O)[C@@H]1O)c1ccc(-c2ccccc2)cc1` [CB161], in the series on U87 (setting [2]), the IC50 is greater than 200 µM.

`C=CCOc1ccc([C@H](CO)NC[C@H]2NC[C@H](O)[C@@H]2O)cc1` [CB181, (2R,3R,4S)-2{{{(1R)-2-hydroxy-1-[4-(prop-2-enyloxy)phenyl]ethyl}amino}methyl} pyrrolidine-3,4-diol]: the IC50 with U87 (setting [2]) was greater than 200 µM.

`OC[C@H](NC[C@H]1NC[C@H](O)[C@@H]1O)c1ccc(-c2ccc(C(F)(F)F)cc2)cc1` [CB183, (2R,3R,4S)-2-{{{(1R)-2-hydroxy-1-[4'-(trifluoromethyl)-[1,1'-biphenyl]-4-1]ethyl}amino}methyl}pyrrolidine-3,4-diol]: the “potent cytotoxic activity for concentrations” value in series [1] is listed as less than 200 µM. Besides, the IC50 was determined as 80 µM with U87 (U87 (glioblastoma), viability 72 hours after addition, read-out: IC50); 93.3 µM in the series with BT474; 132 µM with PC3; 76.7 µM in the series with MCF7; 48.3 µM in the series on SKBR3; 65.8 µM in the series with MDA-MB-231. Besides, in the series with A549, the IC50 was 152 µM.

In the case of `O=C(NC[C@H](NC[C@H]1NC[C@H](O)[C@@H]1O)c1ccccc1)c1cccc(Br)c1` [N-[(2R)-2-({[(2R,3R,4S)-3,4-dihydroxypyrrolidin-2-yl]methyl}amino)-2-phenylethyl]-3-bromobenz-amide], the “inhibition of human glioblastoma cells” value in the series on human glioblastoma cells was “convincing inhibition”.

For the compound `O[C@H]1[C@H]2[C@H](O)CCCN2C[C@H]1O` [swainsonine], the “inhibitory effect on glioblastoma cell growth” value with glioblastoma cell growth was “only little inhibitory effect”.
